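Test compounds were applied to cells in 96-well plates for 48 hours at 5 doses. TGI: total growth inhibition.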 Where a SMILES comes first, the peptide text is derived from it. The star is where a group is joined. OBn = c1ccc(CO*)cc1
Experiments:
Assay in all cases: growth of human tumour cells (NCI), 48 h
[1] = tested on: HCT-116 colon
[2] = tested on: OVCAR-5 ovarian
[3] = tested on: CAKI-1 renal
[4] = tested on: SF-295 CNS
[5] = tested on: COLO 205 colon
[6] = tested on: HCC-2998 colon
[7] = tested on: RXF 393 renal
[8] = tested on: MDA-MB-231 breast
[9] = tested on: IGROV1 ovarian
[10] = tested on: SNB-19 CNS

SMILES | TGI [1] | TGI [2] | TGI [3] | TGI [4] | TGI [5] | TGI [6] | TGI [7] | TGI [8] | TGI [9] | TGI [10]
NC(CCC(=O)OCc1ccccc1)C(=O)NC(CCC(=O)OCc1ccccc1)C(=O)O (stereo not given) (H-Glu(OBn)-Glu(OBn)-OH; configuration not given here) | > 100 µM | > 100 µM | > 100 µM | > 100 µM | > 100 µM | > 100 µM | > 100 µM | > 100 µM | > 100 µM | > 100 µM
COC(=O)c1c(C(=O)OC)c(C(c2ccccc2)c2ccccc2)n(-c2ccccc2)c1Cl | > 10 µM | > 10 µM | > 10 µM | > 10 µM | > 10 µM | > 10 µM | > 10 µM | > 10 µM | > 10 µM | > 10 µM
C[C@@H]1OC2(O)[C@@H]3CCCN3C(=O)N(Cc3ccccc3)N2C1=O (stereo not given in full) | > 100 µM | > 100 µM | > 100 µM | > 100 µM | > 100 µM | > 100 µM | > 100 µM | > 100 µM | > 100 µM | > 100 µM
C#C[C@]1(O)CC[C@H]2[C@@H]3CCC4=C/C(=N\OCCN5CCCC5)CC[C@]4(C)[C@H]3CC[C@@]21C | 28.7 µM | 50.3 µM | 39.1 µM | 14.5 µM | 43.1 µM | 34.5 µM | > 39.9 µM | 36.2 µM | 23.2 µM | 32.2 µM
C=C(Cl)C(Br)(CBr)CCC(Br)C(C)(C)Br (stereo not given) | 3.92 µM | > 10 µM | > 10 µM | > 10 µM | > 10 µM | > 10 µM | 7.86 µM | 3.38 µM | 3.68 µM | > 10 µM
CC(C)=CCC[C@@H](C)C1=C(Nc2ccccc2)C(O)=C(C)C(=O)C1=O | 16.9 µM | > 43.5 µM | 11.8 µM | 11.1 µM | 13.1 µM | > 41.4 µM | 21.3 µM | > 27.4 µM | 17.6 µM | 22.8 µM
CC(=C(C(=O)O)C(=O)O)c1cc(-c2cccs2)cc(-c2ccc(Cl)cc2)c1O | 29.1 µM | > 86.8 µM | 40.6 µM | 46.5 µM | 44.8 µM | 38 µM | 29.6 µM | 43.5 µM | 29.3 µM | 37.1 µM
N#CC1=C(N2CCOCC2)CCC1 | > 100 µM | > 100 µM | > 100 µM | > 100 µM | > 100 µM | > 100 µM | > 100 µM | > 100 µM | > 100 µM | > 100 µM
O=C1OC2(c3ccc(O)cc3Oc3cc(O)ccc32)c2c1c(-c1ccccc1)c(-c1ccccc1)c(-c1ccccc1)c2-c1ccccc1 | 57.3 µM | 49.3 µM | 62.8 µM | 49.5 µM | 35.2 µM | 30 µM | 67.2 µM | 37.4 µM | 37.4 µM | 37.7 µM
C/C(=C/CNc1ncnc2c1ncn2CCC#N)CO | > 100 µM | > 100 µM | > 100 µM | > 100 µM | > 100 µM | > 100 µM | > 100 µM | > 100 µM | > 100 µM | > 100 µM
COc1ccccc1CNCc1nc2ccccc2[nH]1 | > 100 µM | > 100 µM | > 100 µM | > 100 µM | > 100 µM | > 100 µM | > 100 µM | > 100 µM | > 100 µM | > 100 µM
O=Cc1ccc2c(c1)CC1(C2)Cc2ccc(C=O)cc2C1 | 19.6 µM | > 100 µM | > 100 µM | > 70.4 µM | 70.9 µM | > 91.8 µM | > 25.4 µM | 34.1 µM | 54.5 µM | 89.2 µM
CCOC(=O)c1c(-c2ccccc2)[nH]c2ccc(Cl)cc2c1=O | > 100 µM | > 100 µM | > 100 µM | > 100 µM | > 100 µM | > 100 µM | > 100 µM | > 100 µM | > 100 µM | > 100 µM
COC(=O)c1nc2c3c(cccc3c1C(=O)OC)Nc1ccccc1-2 | > 100 µM | > 100 µM | > 100 µM | > 100 µM | > 100 µM | > 100 µM | > 100 µM | > 100 µM | > 100 µM | > 100 µM
CO[C@H](c1ccccc1)[C@H](O)[C@](O)(c1ccccc1)P(=O)(OC)OC | > 100 µM | > 100 µM | > 100 µM | > 100 µM | > 100 µM | > 100 µM | > 100 µM | > 100 µM | > 100 µM | > 100 µM
O=c1[nH]c2ccsc2c(=O)n1COCc1ccccc1 | > 100 µM | > 100 µM | > 100 µM | > 100 µM | > 100 µM | > 100 µM | > 100 µM | > 100 µM | > 100 µM | > 100 µM
Cc1nc2ccc(N=NN(C)C)cc2[nH]1 | > 100 µM | > 100 µM | > 100 µM | > 100 µM | > 100 µM | > 100 µM | > 100 µM | > 100 µM | > 100 µM | > 100 µM

From PubChem BioAssay (NCI)
